For data set [1], the target named is B. cereus 569/H/9 β-lactamase I (Bacillus cereus, UniProt P00809). The conditions noted are these: 250 nM of the 30-mer (23×IC50); 1.1 mM benzylpenicillin, 50 mM MOPS pH 7.0; listed as 30-mer. Here is the method:
The β-lactamase I activity assays used was modified from Davies et al. (1974), which described a general method of β-lactamase I activity assays. Briefly, the enzyme was incubated with 20 mM EDTA (pH 7.0) for 15 min. at room temperature prior to the assay. The enzymatic hydrolysis of 1.1 mM benzylpenicillin in […] MOPS (pH 7.0) and 1 mM EDTA was continuously monitored at 231 nm at 30° C. in a 1-cm pathlength quartz cell in a total volume of 1 mL. One unit of β-lactamase activity was generally defined as the amount of enzyme required to hydrolyze about one μmole of substrate/min. at 30° C. at pH 7.0.
An experiment was performed to test the specificity of inhibition of the 30-mer (Seq ID No.:6). The inhibition of B. cereus 569/H/9 β-lactamase I (Seq ID No.:7) was tested using various concentrations of the 30-mer RNA. The concentration of the substrate (benzylpenicillin) was 1.1 mM in the buffer (50 mM MOPS (pH 7.0)/1 […] EDTA).

For data set [2], the target named is B. cereus 5/B/6 metallo-β-lactamase (Bacillus cereus, UniProt P14488). Particulars: for IC50: […] cephalosporin C; for Ki: steady-state kinetics. On the procedure:
Assay of the purified B. cereus 5/B/6 metallo-β-lactamase and B. cereus 569/H/9 β-lactamase I. Metallo-β-lactamase activity assays using cephalosporin C as substrate were determined as previously reported (Myers and Shaw, 1989). The cephalosporin C absorbance maximum at 260 nm was monitored as a function of time (Davies et al., 1974). One unit of activity is generally defined as the amount of enzyme required to catalyze the hydrolysis of about 1 μmol of β-lactam substrate (cephalosporin C) per minute at 30° C. at pH 7.0. […] The assays were carried out at 30° C. in a 0.1 cm path length quartz cell and the total assay volume was 250 μL.
Reversible inhibition studies for metallo-β-lactamase. To test for reversible inhibition, metallo-β-lactamase was incubated with various concentrations of the possible inhibitors in 50 mM MOPS buffer, pH 7.0. The enzyme activity remaining was determined (Myers and Shaw, 1989).
Various assays were conducted with the 30-mer RNA in the presence of metallo-β-lactamase to determine its inhibition values (IC50, Ki, and Ki′). The 30-mer RNA was tested for inhibition of β-lactamase I and bovine carboxypeptidase A. The 30-mer RNA was also tested for inhibition of metallo-β-lactamase in the presence of Zn^2+.
30-mer RNA. The IC50 value for the 30-mer RNA was determined by measuring the rate of enzymatic hydrolysis of cephalosporin C with different amounts of the 30-mer RNA.

Data set [3] deals with T1, bovine carboxypeptidase A (Bos taurus, UniProt P00730).
T1 construct: purchased Sigma
T1 sequence (P00730 111-419): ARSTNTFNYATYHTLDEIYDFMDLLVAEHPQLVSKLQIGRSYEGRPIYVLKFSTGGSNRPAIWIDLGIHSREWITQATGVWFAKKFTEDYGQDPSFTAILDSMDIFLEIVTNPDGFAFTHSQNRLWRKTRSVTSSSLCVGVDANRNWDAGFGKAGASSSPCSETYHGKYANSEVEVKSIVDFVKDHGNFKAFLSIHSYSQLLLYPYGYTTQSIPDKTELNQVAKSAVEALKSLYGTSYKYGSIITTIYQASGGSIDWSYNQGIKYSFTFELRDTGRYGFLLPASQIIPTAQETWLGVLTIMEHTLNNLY
Nature of the data set: Inhibition of carboxypeptidase A (hydrolysis of hippuryl-L-phenylalanine, 254 nm). It is filed as biochemical. The conditions noted are these: 250 nM of the 30-mer (23×IC50), 1 mM hippuryl-L-phenylalanine, 0.05 M Tris-HCl pH 7.5, 0.5 M NaCl. On the procedure: Assay of bovine carboxypeptidase A. The assay of bovine carboxypeptidase A is based on the method of Folk and Schirmer (1963). The rate of hydrolysis of hippuryl-L-phenylalanine is determined by monitoring the increase in absorbance at 254 nm (25° C., pH 7.5). The enzyme was dissolved in 10% lithium chloride to a concentration of 1-3 units per mL. Hippuryl-L-phenylalanine (0.001 M) was dissolved in 0.05 M Tris-HCl, pH 7.5, with 0.5 M sodium chloride. In a 1-cm pathlength cuvette, 1.0 mL of substrate was added and incubated in the spectrophotometer at 25° C. for 3-4 minutes to reach temperature equilibration and to establish blank rate. 50 μL of diluted enzyme was added to record the increase in AbS254.
In addition, the zinc dependent bovine carboxypeptidase A was used to test the specificity of inhibition by this 30-mer. […] The concentration of the substrate (hippuryl-L-phenylalanine) was 1 mM in the buffer (0.05 M Tris-HCl, pH 7.5, with 0.5 M sodium chloride).

“Also recorded” adds a separate entry of the source. Like-named read-outs stand apart in the source and are kept apart here.

B. cereus 5/B/6 metallo-β-lactamase, sequence (P14488 29-256, looked up, natural form): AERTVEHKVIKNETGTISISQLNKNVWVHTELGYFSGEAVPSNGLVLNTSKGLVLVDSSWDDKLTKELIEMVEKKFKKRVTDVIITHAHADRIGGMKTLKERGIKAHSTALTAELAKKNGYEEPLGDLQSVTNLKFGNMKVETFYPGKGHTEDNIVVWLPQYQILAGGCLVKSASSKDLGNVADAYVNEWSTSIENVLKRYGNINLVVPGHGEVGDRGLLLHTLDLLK
B. cereus 569/H/9 β-lactamase I, sequence (P00809 28-306): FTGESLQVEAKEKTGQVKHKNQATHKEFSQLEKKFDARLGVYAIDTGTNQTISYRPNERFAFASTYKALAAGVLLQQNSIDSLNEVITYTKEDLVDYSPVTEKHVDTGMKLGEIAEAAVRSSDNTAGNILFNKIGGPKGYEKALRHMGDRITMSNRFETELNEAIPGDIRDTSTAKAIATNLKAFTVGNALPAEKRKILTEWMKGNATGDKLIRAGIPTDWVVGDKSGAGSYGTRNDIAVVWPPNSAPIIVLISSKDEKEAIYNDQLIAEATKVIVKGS

Regarding “5′-UGGCUGCAGGGUCUGGCCCCCCGUUUGGUG-3′ (UGGCUGCAGGGUCUGGCCCCCCGUUUGGUG; chemistry not given here) [30-mer RNA, 30-mer RNA aptamer selected by twelve rounds of SELEX against B. cereus 5/B/6 metallo-β-lactamase]”, the “effect on the activity of B. cereus 569/H/9 β-lactamase I” value in data set [1] is reported as “no effect”. Moreover, the IC50 in data set [2] (read-out: IC50 for B. cereus 5/B/6 metallo-β-lactamase in the presence of Zn2+ ions, 50 mM MOPS and 1 mM ZnSO4, pH 7.0) stood at 19.3 µM; in data set [2] (read-out: IC50 for B. cereus 5/B/6 metallo-β-lactamase, 50 mM MOPS pH 7.0, no added Zn2+), 0.011 µM. Further, the Ki (in general, the dissociation constant of the complex between target and ligand, obtained from inhibition or displacement) in data set [2] (read-out: Ki (dissociation constant for the inhibitor from the enzyme-inhibitor complex), slope replot) came to 2 nM; in data set [2] (read-out: Ki′ (dissociation constant for the inhibitor from the enzyme-substrate-inhibitor complex), intercept replot), 15 nM. For the same substance, the “IC50 / inhibition of metallo-β-lactamase, range in words” value in data set [2] (stated in words) is “nanomolar range”. The type of inhibition entry in data set [2] (steady-state kinetic study, Lineweaver-Burk plot) is listed as “noncompetitive inhibition”. The “effect on the activity of carboxypeptidase A” value in data set [3] is given as “lack of inhibition; also recorded: do not show inhibition”; in data set [3] (listed as 30-mer) it was “no effect”.

Source of the values: patent US7989613B2, “Inhibition of metallo-β-lactamase by RNA” (priority 2005, dated 2011).
